Measured values published in PubChem BioAssay AID330 (DTP/NCI, 2004).
Values joined by “and” are separate entries in the source; they are usually repeats but may differ in a detail not shown here. Equal values may be shown once. Toxic doses and inconclusive results are not listed. Peptide text beside a SMILES is read from it.

Test system: P388 leukemia ip, CD2F1 mice, survival T/C
Test: NCI In Vivo Anticancer Drug Screen. Data for tumor model P388 Leukemia (intraperitoneal) in CD2F1 (CDF1) mice
Details: endpoint: median survival time, higher = longer survival
Summary of the method: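 Mice carrying the transplanted tumor received test compound or vehicle. Survival was recorded in each group, and the value is the treated-group measurement divided by that of the vehicle-treated control group.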

[1] = dose: 100.0 mg/kg/injection, schedule: Q04DX003 (ip), vehicle: saline with Tween-80
[2] = dose: 200.0 mg/kg/injection, schedule: Q04DX003 (ip), vehicle: saline with Tween-80
[3] = dose: 400.0 mg/kg/injection, schedule: Q04DX003 (ip), vehicle: saline with Tween-80
[4] = dose: 60.0 mg/kg/injection, schedule: Q01DX005 (ip), vehicle: saline with Tween-80
[5] = dose: 120.0 mg/kg/injection, schedule: Q01DX005 (ip), vehicle: saline with Tween-80
[6] = dose: 240.0 mg/kg/injection, schedule: Q01DX005 (ip), vehicle: saline with Tween-80
[7] = dose: 25.0 mg/kg/injection, schedule: Q04DX003 (ip), vehicle: Klucel (hydroxypropylcellulose) (HPC)
[8] = dose: 50.0 mg/kg/injection, schedule: Q04DX003 (ip), vehicle: Klucel (hydroxypropylcellulose) (HPC)
[9] = dose: 100.0 mg/kg/injection, schedule: Q04DX003 (ip), vehicle: Klucel (hydroxypropylcellulose) (HPC)
[10] = dose: 25.0 mg/kg/injection, schedule: Q01DX009 (ip), vehicle: saline with Tween-80
[11] = dose: 50.0 mg/kg/injection, schedule: Q01DX009 (ip), vehicle: saline with Tween-80
[12] = dose: 200.0 mg/kg/injection, schedule: Q01DX005 (ip), vehicle: saline with Tween-80
[13] = dose: 100.0 mg/kg/injection, schedule: Q01DX009 (ip), vehicle: saline with Tween-80

CS(=O)(=O)OCc1ccc(COS(C)(=O)=O)cc1
T/C (dose: 12.5 mg/kg/injection, schedule: Q04DX003 (ip), vehicle: Klucel (hydroxypropylcellulose) (HPC)): 123 % of control

CC(C)C(NC(=O)C(N)CCCCN)C(=O)O (stereo not drawn) (H-Lys-Val-OH; configuration not given here)
T/C (dose: 100.0 mg/kg/injection, schedule: Q04DX003 (ip), vehicle: saline): 96 % of control | T/C (dose: 200.0 mg/kg/injection, schedule: Q04DX003 (ip), vehicle: saline): 97 % of control | T/C (dose: 400.0 mg/kg/injection, schedule: Q04DX003 (ip), vehicle: saline): 97 % of control

COC(=O)n1oc2ccccc2c1=O
T/C (dose: 100.0 mg/kg/injection, schedule: Q04DX002 (ip), vehicle: Klucel (hydroxypropylcellulose) (HPC)): 99 % of control | T/C (dose: 200.0 mg/kg/injection, schedule: Q04DX002 (ip), vehicle: Klucel (hydroxypropylcellulose) (HPC)): 101 % of control | T/C (dose: 400.0 mg/kg/injection, schedule: Q04DX002 (ip), vehicle: Klucel (hydroxypropylcellulose) (HPC)): 101 % of control

NC(=S)C(F)(F)F
T/C (dose: 75.0 mg/kg/injection, schedule: Q01DX001 (ip), vehicle: saline with Tween-80): 103 % of control | T/C (dose: 150.0 mg/kg/injection, schedule: Q01DX001 (ip), vehicle: saline with Tween-80): 113 % of control | T/C (dose: 300.0 mg/kg/injection, schedule: Q01DX001 (ip), vehicle: saline with Tween-80): 103 % of control

CC(C)C1OC(/C=C/c2ccccc2)OCC1(C)C (centres undefined)
T/C (dose: 25.0 mg/kg/injection, schedule: Q04DX003 (ip), vehicle: saline with Tween-80): 102 % of control | T/C (dose: 50.0 mg/kg/injection, schedule: Q04DX003 (ip), vehicle: saline with Tween-80): 102 % of control | T/C [1]: 104 % of control | T/C [2]: 98 % of control | T/C [3]: 102 % of control

c1ccc2c(c1)[nH]c1c(N3CCOCC3)nnc(N3CCOCC3)c12
T/C (dose: 50.0 mg/kg/injection, schedule: Q01DX005 (ip), vehicle: Klucel (hydroxypropylcellulose) (HPC)): 99 % of control | T/C [4]: 103 % of control | T/C (dose: 100.0 mg/kg/injection, schedule: Q01DX005 (ip), vehicle: Klucel (hydroxypropylcellulose) (HPC)): 98 % of control | T/C [5]: 96 % of control | T/C (dose: 200.0 mg/kg/injection, schedule: Q01DX005 (ip), vehicle: Klucel (hydroxypropylcellulose) (HPC)): 98 % of control | T/C [6]: 90 % of control

O=C1CCCc2c1ccn2Cc1ccccc1
T/C [7]: 105 % of control | T/C [8]: 100 % of control | T/C [9]: 100 % of control | T/C (dose: 200.0 mg/kg/injection, schedule: Q04DX003 (ip), vehicle: Klucel (hydroxypropylcellulose) (HPC)): 99 % of control

CSC(=S)Nc1nc2ccc(Cl)cc2s1
T/C (dose: 6.25 mg/kg/injection, schedule: Q01DX009 (ip), vehicle: Klucel (hydroxypropylcellulose) (HPC)): 104 % of control | T/C (dose: 12.5 mg/kg/injection, schedule: Q01DX009 (ip), vehicle: Klucel (hydroxypropylcellulose) (HPC)): 111 % of control | T/C (dose: 25.0 mg/kg/injection, schedule: Q01DX009 (ip), vehicle: Klucel (hydroxypropylcellulose) (HPC)): 88 % of control

COC(=O)C(NC(=O)c1ccccc1)C1CCC(Cl)CN1C(=O)OCc1ccccc1 (centres undefined)
T/C (dose: 8.75 mg/kg/injection, schedule: Q01DX009 (ip), vehicle: Klucel (hydroxypropylcellulose) (HPC)): 100 % of control | T/C (dose: 17.5 mg/kg/injection, schedule: Q01DX009 (ip), vehicle: Klucel (hydroxypropylcellulose) (HPC)): 100 % of control | T/C (dose: 35.0 mg/kg/injection, schedule: Q01DX009 (ip), vehicle: Klucel (hydroxypropylcellulose) (HPC)): 100 % of control | T/C (dose: 70.0 mg/kg/injection, schedule: Q01DX009 (ip), vehicle: Klucel (hydroxypropylcellulose) (HPC)): 92 % of control

OC1c2ccccc2-c2cccc(N=Cc3ccc4c(c3)OCO4)c21 (centres undefined)
T/C [4]: 108 % of control | T/C [5]: 97 % of control | T/C [6]: 95 % of control

COC(=O)C(N)CCCCNc1ccc2c(cc1=O)C(NC(C)=O)CCc1cc(OC)c(OC)c(OC)c1-2 (centres undefined)
T/C [10]: 119 % of control | T/C (dose: 53.0 mg/kg/injection, schedule: Q01DX009 (ip), vehicle: saline): 117 % of control | T/C (dose: 80.0 mg/kg/injection, schedule: Q01DX009 (ip), vehicle: saline): 117 % of control | T/C (dose: 270.0 mg/kg/injection, schedule: Q01DX009 (ip), vehicle: saline): 150 % of control

Cc1ccc(NCCNCCO)c2c(=O)c3ccc(O)cc3sc12
T/C [11]: 174 % of control

COCN(C)N=Nc1ccc(Br)cc1
T/C (dose: 50.0 mg/kg/injection, schedule: Q01DX005 (ip), vehicle: saline with Tween-80): 95 % of control | T/C (dose: 100.0 mg/kg/injection, schedule: Q01DX005 (ip), vehicle: saline with Tween-80): 103 % of control | T/C [12]: 102 % of control

Cc1ccc2nc(-c3ccc(CSC(=N)N)cc3)oc(=O)c2c1
T/C [11]: 93 % of control | T/C [13]: 89 % of control

CCOC(=O)N1C(C(=O)c2ccc(C)cc2)N(C2CCCCC2)C(c2ccccc2)N1C(=O)OCC (centres undefined)
T/C (dose: 400.0 mg/kg/injection, schedule: Q01DX009 (ip), vehicle: saline with Tween-80): 86 % of control

CC1OC(C)(c2ccc(Cl)c(O)c2)OC1C (centres undefined)
T/C [4]: 100 % of control | T/C [5]: 102 % of control | T/C [6]: 102 % of control

CC(C)(C)OC(=O)NC(Cc1c[nH]c2ccccc12)C(=O)ON1C(=O)CCC1=O (centres undefined)
T/C [10]: 97 % of control | T/C [11]: 108 % of control | T/C [13]: 110 % of control | T/C (dose: 200.0 mg/kg/injection, schedule: Q01DX009 (ip), vehicle: saline with Tween-80): 105 % of control

CCOC(=O)NNc1nc(-c2ccccc2)nc2nonc12
T/C [10]: 91 % of control | T/C [13]: 110 % of control

CCC1=CC2CN(CCc3c([nH]c4ccccc34)C(C(=O)OC)(c3cc4c(cc3OC)N(C=O)C3C(O)(C(=O)NC)C(OC(C)=O)C5(CC)C=CCN6CCC43C65)C2)C1 (centres undefined)
T/C (dose: 1.0 mg/kg/injection, schedule: Q01DX001 (ip), vehicle: water): 150 % of control | T/C (dose: 2.0 mg/kg/injection, schedule: Q01DX001 (ip), vehicle: water): 153 % of control | T/C (dose: 4.0 mg/kg/injection, schedule: Q01DX001 (ip), vehicle: water): 160 % of control

O=C(CC(O)c1ccccc1)Sc1ccccc1 (centres undefined)
T/C [7]: 100 % of control | T/C [8]: 100 % of control | T/C [9]: 95 % of control

COc1ccc(Cc2nnc(C)c3c(C)[nH]nc23)cc1OC
T/C (dose: 50.0 mg/kg/injection, schedule: Q01DX009 (ip), vehicle: Klucel (hydroxypropylcellulose) (HPC)): 92 % of control | T/C (dose: 100.0 mg/kg/injection, schedule: Q01DX009 (ip), vehicle: Klucel (hydroxypropylcellulose) (HPC)): 92 % of control

CSC(=S)/C(=C/Nc1ccccn1)c1ccccc1
T/C (dose: 0.93 mg/kg/injection, schedule: Q01DX005 (ip), vehicle: Klucel (hydroxypropylcellulose) (HPC)): 100 % of control | T/C (dose: 1.87 mg/kg/injection, schedule: Q01DX005 (ip), vehicle: Klucel (hydroxypropylcellulose) (HPC)): 94 % of control

CCOC(=O)C1SC(=S)N(c2ccccc2)C1N (centres undefined)
T/C (dose: 12.5 mg/kg/injection, schedule: Q01DX009 (ip), vehicle: saline): 98 % of control | T/C (dose: 25.0 mg/kg/injection, schedule: Q01DX009 (ip), vehicle: saline): 104 % of control | T/C (dose: 50.0 mg/kg/injection, schedule: Q01DX009 (ip), vehicle: saline): 105 % of control and 86 % of control

CCN(CC)c1ccc(C(C#N)(c2ccc(N(CC)Cc3cccc(S(=O)(=O)O)c3)cc2)c2ccc(N(CC)Cc3cccc(S(=O)(=O)O)c3)cc2)cc1
T/C (dose: 72.0 mg/kg/injection, schedule: Q01DX001 (ip), vehicle: saline with Tween-80): 98 % of control and 102 % of control | T/C (dose: 72.0 mg/kg/injection, schedule: Q01DX005 (ip), vehicle: saline with Tween-80): 99 % of control | T/C (dose: 120.0 mg/kg/injection, schedule: Q01DX001 (ip), vehicle: saline with Tween-80): 104 % of control and 92 % of control | T/C [5]: 92 % of control | T/C (dose: 200.0 mg/kg/injection, schedule: Q01DX001 (ip), vehicle: saline with Tween-80): 90 % of control and 96 % of control | T/C [12]: 98 % of control

O=C1c2ccccc2SCC12OC2c1ccc(Cl)cc1 (centres undefined)
T/C (dose: 100.0 mg/kg/injection, schedule: Q04DX002 (ip), vehicle: saline with Tween-80): 95 % of control | T/C (dose: 200.0 mg/kg/injection, schedule: Q04DX002 (ip), vehicle: saline with Tween-80): 90 % of control

CCOC(=O)Nc1cc(NC(=O)OCC)cc([N+](=O)[O-])c1
T/C [1]: 100 % of control | T/C [2]: 104 % of control | T/C [3]: 90 % of control
